Columns and labels:
[1] = Systemic uptake from the colon assessed as PpIX skin fluorescence after colonic instillation; assay type: in vivo, hairless mice (C3.Cg/TifBomTac-hr)
Experimental: Experiments were performed in hairless mice weighing 20 g (C3.Cg/TifBomTac-hr). […] The animals were fasted for 24 hours but with free access to water before the experiment. Prior to administration of the test preparation, the mice were anaesthetised with Hypnorm/Dormicum. This was also repeated every second hour.
When ALA hexylester is administered sytemically, it induces PpIX formation in the entire body. The systemic uptake of ALA hexylester after colonic administration was therefore assessed as skin fluorescence. To assess the PpIX skin fluorescence, the mice were photographed using a fluorescence camera (Medeikonos PDD/PDT, Medeikonos AB, Gothenburg, Sweden) at excitation wavelengths of 365 and 405 nm and 2 sec illumination time. Each photo was calibrated to a fluorescence standard (Uranyl Standard, J&M, Analytische Mess and Regeltecknik, GmbH, Hamburg, Germany) and adjusted for background fluorescence. The mean amount of PpIX fluorescence in each image was calculated by means of image analyzer-software (MatLab 7.2.0.232, Math-Works, Natick, Mass., USA).
All dilutions were performed in 0.9% NaCl (150 mM=300 mOsmol/l). For the colon instillation, a 1000 μl micropipette with a plastic tip was used. […] In all experiments, instillation lasted until the experiment was finished (approx. 5 hours).
Increasing doses (8 to 40 mM ALA hexylester) were given by anal administration to mice and the resulting skin fluorescence measured as described. […] The resulting systemic fraction was proportional to the concentration of ALA hexylester in the enema.
The ALA hexylester was dissolved as the corresponding hydrochloride salt. 20 mM ALA hexylester constitutes an osmolarity of approx. 40 mOsmol/l.
(§1) The purpose of this study was to investigate the effect of adding sorbitol to an enema formulation containing 20 mM ALA hexylester in an attempt to reduce the systemic uptake of the photosensitizer. It was discovered in pilot experiments that sorbitol at concentrations above 300 mM gave diarrhea. Therefore, the effect of 300 mM sorbitol in 0.9% NaCl (600 mOsmol/l) was investigated by comparing the skin fluorescence in two mice that were given 20 mM ALA hexylester (in 0.9% NaCl) with the skin fluorescence in two mice that had received 20 mM ALA hexylester and 300 mM sorbitol. The osmolarities of these solutions are outlined below. • 1. 20 mM ALA hexylester in 0.9% NaCl: (40+300) mOsmol/l=340 mOsmol/l • 2. 20 mM ALA hexylester and 300 mM sorbitol in 0.9% NaCl: (40+300+300) mOsmol/l=640 mOsmol/l (hypertonic preparation)

[2] = Absorption from the colon after enema (pharmacokinetic studies with 14C-labelled agents, HAL enema studies); assay type: in vivo; conditions: enema preparations
Description: Such high systemic uptake of photosensitizer may constitute a safety issue for the patient due to the high dosage of agent circulating within the bloodstream.

[3] = Osmolarity of preparations; assay type: physicochemical; conditions: calculated from concentrations
Description: An osmometer may be used to determine the osmolarity of a solution. There are several different techniques employed in osmometry; vapour pressure depression osmometers determine the concentration of osmotically active particles that reduce the vapour pressure of a solution; membrane osmometers measure the osmotic pressure of a solution separated from pure solvent by a semi-permeable membrane; and freezing point depression osmometers are used to determine the osmotic strength of a solution (since osmotically active compounds depress the freezing point of a solution). Osmolarity may be measured using a vapour pressure osmometer such as that supplied by ELITech Group (Vapro 5600 vapour pressure osmometer). Where reference is made herein to specific values for osmolarity, these values may be determined using such apparatus operated under standard temperature and pressure conditions.
The osmolarity of small molecules can normally be calculated from their concentration in solution. For example, in the case of simple salts such as NaCl: 0.9% NaCl=150 mM. NaCl is fully dissociated in water and both Na^+ and Cl^− contribute to the osmolarity (i.e. each mole of NaCl becomes two osmoles in solution, one mole of Na^+ and one mole of Cl^−). The osmolarity is therefore 150 mM×2=300 mOsmol/l. […]

[4] = system: pre-malignant conditions in the colon; conditions: enema, 200 mg in 500 ml or 1000 ml phosphate buffered saline; Mayinger et al. 2008; cited from earlier work
[5] = design: species or system mice; conditions: C3.Cg/TifBomTac-hr (hairless), mouse, in vivo
Experimental: as §1

| skin fluorescence ([1]; 8 mM ALA hexylester (concentration used clinically), colonic instillation 0.6 ml in 0.9% NaCl, FIG. 1) | skin fluorescence ([1]; 20 mM ALA hexyl ester, colonic administration) | relationship between concentration in the enema and resulting skin fluorescence ([1]; 8 to 40 mM, anal administration, FIG. 1) | concentration of ALA hexylester appearing saturating for skin fluorescence ([1]; colonic instillation 0.6 ml in 0.9% NaCl, FIG. 1) [µM] | osmolarity [3] | sorbitol concentration that gave diarrhea [5] | SMILES | absorption of the active photosensitizing agent in the colon [2] | more polyps detected by PDD than with white light endoscopic imaging [4] [%] |
| --- | --- | --- | --- | --- | --- | --- | --- | --- |
| no skin fluorescence | reasonable levels of skin sensitivity | clear dose-response relationship | ≥ 30000 | approx. 40 mOsmol/l |  | CCCCCCOC(=O)CCC(=O)CN [ALA hexylester, 5-aminolevulinic acid hexyl ester] | absorption of a significant amount | 28 |
|  |  |  |  |  | above 300 mM | OC[C@@H](O)[C@@H](O)[C@H](O)[C@@H](O)CO [sorbitol] |  |  |

— patent publication US20130211215A1, “HYPEROSMOTIC PREPARATIONS COMPRISING 5-AMINOLEVULINIC ACID OR DERIVATIVE AS PHOTOSENSITIZING AGENT” (Photocure ASA, priority 2010, published 2013)
